Consider 15 molecules from patent US20210029993A1, “SPATIAL INHIBITORS, DETERRENTS AND REPELLENTS FOR MOSQUITOES AND MIDGES” (BEDOUKIAN RESEARCH, INC., priority 2005, published 2021).

Assay type in all cases: in vivo
Test [1] relates to female mosquitoes (Aedes aegypti). The test can be described thus: Mosquitoes feeding test (Plexiglas module, treated membrane over dyed sucrose/ATP solution). Particulars: for Feeding Relative To Control: control = 1.00, lower = more repellent; for contact mosquito repellent activity (feeding tests, FIGS. 1 and 3), in words: feeding relative to control. On the procedure:
The test was conducted at 0900-2100 hours in a walk-in incubator (26° C., 63-80% RH) illuminated by fluorescent lights. Mosquitoes were tested in a two-piece Plexiglas module designed to assess their response to feeding deterrents. The bottom piece of the module was 40×7×4-cm hollow platform supporting six circular wells (diameter=3.8 cm, depth=6 mm). Water (40° C.) flowed through the central cavity of the platform at a rate of 215 ml/min. The top piece of the module consisted of six 4.5×4.0×5.0 cm chambers, the floors of which were fitted with a sliding door positioned over a circular opening 3.5 cm in diameter. Mosquitoes were introduced through an aperture 1 cm in diameter on the front wall of the chambers. For each test, five female mosquitoes (Aedes aegypti) were aspirated into each of five chambers of the top module piece and the apertures were plugged with corks wrapped in plastic film. The wells on the bottom piece of the module were filled with 7 ml of 10% sucrose solution containing ATP (2.9 mg/ml). To each well, 75 μl of green dye (McCormick Food, Hunt Valley, Md.) were added so that those mosquitoes imbibing the sugar solution could be identified when crushed at the end of the tests. Each membrane received 50 ul of acetone or experimental compound solution, applied to 9.6 cm^2 circular area on 0.1 mm-thick membranes made of nylon mesh in a silicone matrix. The membranes were then placed over each well in contact with the sugar solution.
The circular openings on the floor of each chamber of the top piece of the module were aligned with each membrane-covered well of the bottom piece. The sliding floors of the chambers were then opened allowing mosquitoes access to the membranes. The number of mosquitoes landing on the membranes, and those flying within the apparatus, were recorded each minute for five minutes. After five minutes, any mosquitoes remaining on the membranes were removed with a metal wire, and the door of the floor of each chamber was closed. The top piece of the module was then placed into a freezer for 20 minutes. In the test designed to assess feeding, mosquitoes were removed from the frozen module, crushed on white paper towels, and examined for the presence of green dye to indicate that feeding had occurred. The proportions of mosquitoes feeding per trial were analyzed using a standard generalized linear model with a logit link. Landing and flying scores are repeated measures; five reading were obtained for groups of five mosquitoes. Thus, to maintain independence among the data, the five readings were summed, and then the sums divided by 25 (the maximum score in each category) to create proportions of mosquitoes landing and flying. The proportions were then transferred using the standard variance stabilizing transformation for proportions (sin^−1 √y, where y is the proportion), and analyzed using ANOVA (Analysis of Variables)
In Table 1, weight percent (wt %) refers to the weight of the deterring/repelling/inhibiting compound, or combination of compounds, in the composition used in the tests. […] The weight ratio of the compounds in the combination of compounds is given in parentheses in the “Compound(s)” column of Table 1.

The test system of test [2] is female biting midges (Culicoides impunctatus). As to the kind of experiment: Biting midges flying test (Plexiglas module). Particulars: control = 1, higher = more inhibitor activity. Here is the method:
The following tests are employed to illustrate the efficacy of the compounds of this disclosure to effectively act as biting midge deterrents, repellents or as spatial inhibitors for biting midges. […] Biting midges are tested in a two-piece Plexiglas module designed to assess their response to feeding deterrents. […] Water (40° C.) flows through the central cavity of the platform at a rate of 215 ml/min. The top piece of the module consists of six 4.5×4.0×5.0 cm chambers, the floors of which are fitted with a sliding door positioned over a circular opening 3.5 cm in diameter. Biting midges are introduced through an aperture 1 cm in diameter on the front wall of the chambers. For each test, five female biting midges (Culicoides impunctatus) are aspirated into each of five chambers of the top module piece and the apertures are plugged with corks wrapped in plastic film. […] To each well, 77.5 μl of green dye (McCormick Food, Hunt Valley, Md.) are added so that those biting midges imbibing the sugar solution can be identified when crushed at the end of the tests. Each membrane receives 50 μl of acetone or experimental compound solution, applied to 9.6 cm^2 circular area on 0.1 mm-thick membranes made of nylon mesh in a silicone matrix. The membranes are then placed over each well in contact with the sugar solution. The circular openings on the floor of each chamber of the top piece of the module are aligned with each membrane-covered well of the bottom piece. The sliding floors of the chambers are then opened allowing biting midges access to the membranes. The number of biting midges landing on the membranes, and those flying within the apparatus, are recorded each minute for five minutes. After five minutes, any biting midges remaining on the membranes are removed with a metal wire, and the door of the floor of each chamber is closed. The top piece of the module is then placed into a freezer for 20 minutes. In the test designed to assess feeding, biting midges are removed from the frozen module, crushed on white paper towels, and examined for the presence of green dye to indicate that feeding had occurred. The proportions of biting midges feeding per trial are analyzed using a standard generalized linear model with a logit link. Landing and flying scores are repeated measures; five readings are obtained for groups of five biting midges. Thus, to maintain independence among the data, the five readings are summed, and then the sums divided by 25 (the maximum score in each category) to create proportions of biting midges landing and flying. The proportions are then transferred using the standard variance stabilizing transformation for proportions (sin^−1 √y, where y is the proportion), and analyzed using ANOVA (Analysis of Variables). In Table 5, weight percent (wt %) refers to the weight of the deterring/repelling/inhibiting compound, or combination of compounds, in the composition used in the tests. […] The weight ratio of the compounds in the combination of compounds is given in parentheses in the “Compound(s)” column of Table 5.

For a further test, the system named is biting midges. The test can be described thus: Spatial inhibition of biting midges, outdoor trap catch. The following applies: control trap = 100% catch, lower = more inhibition. On the procedure: Two grams of test compound is absorbed onto pieces of absorbent material. These pieces of absorbent material (fragrance release material from Rhopore Inc.) containing absorbed test compound are then placed in a stream of CO2 and r-octenol being released from a biting midges biting midge trap designed to attract biting midges. The test are rotated over a period of 2-5 days in such a manner that both control (trap without test compound) and test compound are tested an equal number of times in each trap employed. The number of biting midges caught in the traps with test compounds is compared to the number of biting midges caught in the trap with no test compound material present. […] Thus, a lowered percentage is indicative of the increasing ability of the test compounds to inhibit the ability of the biting midges sense the target. In Table 6, weight percent (wt %) refers to the weight of the deterring/repelling/inhibiting compound, or combination of compounds, in the composition used in the tests. In the “Percent Caught Relative to Control” column in Table 6, a lower percentage is indicative of the increasing ability of the test compounds to inhibit the ability of the biting midges to sense the target. The weight ratio of the compounds in the combination of compounds is given in parentheses in the “Compound(s)” column of Table 6.

The mark [3] stands for this setting: 80 wt % compound(s) in composition.
[4] abbreviates: 85 wt % compound(s) in composition.
[5] abbreviates: 77.5 wt % compound(s) in composition.
The mark [6] stands for this setting: 92.5 wt % compound(s) in composition.
The mark [7] stands for this setting: 82.5 wt % compound(s) in composition.
Setting [8] is: 87.5 wt % compound(s) in composition.
Setting [9] is: 95 wt % compound(s) in composition.
Where [10] appears, read: 90 wt % compound(s) in composition.

For `Cc1ccc(C(C)(C)O)cc1`, the “Feeding Relative To Control” value in test [1] (setting [3]) is reported as 0.72. The “contact mosquito repellent activity (feeding tests, FIGS. 1 and 3), in words” value (shortened to “contact mosquito repellent activity”) in test [1] was “especially effective as contact mosquito repellents”. Besides, in test [2] (setting [3]), the “Flying Relative To Control” value stood at 1.2. Also, the “Percent Caught Relative To Control” value with biting midges (setting [3]) came out at 25%.

On to `C=C(C)[C@@H]1CC=C(C)[C@H](O)C1` (relative stereo) [cis-Carveol], for which the “Feeding Relative To Control” value in test [1] (setting [4]) stood at 0.66. Further, the “Flying Relative To Control” value in test [2] (setting [4]) came to 1.25. For the same molecule, the “Percent Caught Relative To Control” value with biting midges (setting [4]) worked out at 24%.

In the case of `C=C(C)[C@@H]1CC=C(C)[C@@H](O)C1` (relative stereo) [trans-Carveol], the “Feeding Relative To Control” value in test [1] (setting [5]) turned out to be 0.64. Further, in test [2] (setting [5]), the “Flying Relative To Control” value is on record as 1.5. The “Percent Caught Relative To Control” value with biting midges (setting [5]) was found to be 22%.

In the case of `C=C(C)C1CCC2(C)OC2C1` (single isomer, unassigned; (-)) [(−) Limonene oxide], the “Feeding Relative To Control” value in test [1] (setting [6]) is reported as 0.76. In addition, in test [2] (setting [6]), the “Flying Relative To Control” value is given as 1.15. In the test on biting midges (setting [6]), the “Percent Caught Relative To Control” value amounted to 16%.

`CC(C)=CCCC(C)=CC=O` [Citral]: the “Feeding Relative To Control” value in test [1] (setting [7]) was determined as 0.60. Besides, the “contact mosquito repellent activity” value in test [1] is on record as “especially effective as contact mosquito repellents”. In test [2] (setting [7]), the “Flying Relative To Control” value is reported as 2.15. Moreover, in the test on biting midges (setting [7]), the “Percent Caught Relative To Control” value was 12%.

Turning to `CC(C)=CCCC(C)CC=O` (centres unmarked) [Citronellal], the “Feeding Relative To Control” value in test [1] (setting [6]) is given as 0.62. In test [1], the “contact mosquito repellent activity” value is on record as “especially effective as contact mosquito repellents”. Also, the “Flying Relative To Control” value in test [2] (setting [6]) came to 1.95. For the same molecule, the “Percent Caught Relative To Control” value with biting midges (setting [6]) is listed as 12%.

On to `CC(C)=CCCC(C)CCO` (centres unmarked) [Citronellol], for which the “Feeding Relative To Control” value in test [1] (setting [8]) is given as 0.62. Further, in test [2] (setting [8]), the “Flying Relative To Control” value is reported as 1.5. The “Percent Caught Relative To Control” value in the test on biting midges (setting [8]) came to 12%.

As to `CC(=O)OCCC(C)CCC=C(C)C` (centres unmarked) [Citronellyl acetate], in test [1] (setting [3]), the “Feeding Relative To Control” value is 0.65. Moreover, the “Flying Relative To Control” value in test [2] (setting [3]) is 1.25. Also, the “Percent Caught Relative To Control” value in the test with biting midges (setting [3]) is given as 25%.

Take `CC(=O)OC/C=C(\C)CCC=C(C)C` [Geranyl acetate]: in test [1] (setting [4]), the “Feeding Relative To Control” value is given as 0.68. For the same molecule, the “contact mosquito repellent activity” value in test [1] is recorded as “especially effective as contact mosquito repellents”. Also, the “Flying Relative To Control” value in test [2] (setting [4]) came out at 1.5. Besides, in the test with biting midges (setting [4]), the “Percent Caught Relative To Control” value was found to be 29%.

Regarding `C=CC(C)(CCC=C(C)C)OC(C)=O` (centres unmarked) [Linaloyl acetate], the “Feeding Relative To Control” value in test [1] (setting [9]) was determined as 0.74. Moreover, the “contact mosquito repellent activity” value in test [1] is “especially effective as contact mosquito repellents”. Further, in test [2] (setting [9]), the “Flying Relative To Control” value is 1.2. The “Percent Caught Relative To Control” value in the test on biting midges (setting [9]) is listed as 16%.

As to `CC(=O)OC/C=C(/C)CCC=C(C)C` [Neryl acetate], in test [1] (setting [5]), the “Feeding Relative To Control” value is 0.76. Also, the “contact mosquito repellent activity” value in test [1] was “especially effective as contact mosquito repellents”. Further, in test [2] (setting [5]), the “Flying Relative To Control” value came out at 2.5. For the same molecule, in the test on biting midges (setting [5]), the “Percent Caught Relative To Control” value is recorded as 20%.

On to `CC1=CCC(O)(C(C)C)CC1` (centres unmarked) [Terpinen-4-ol], for which, in test [1] (setting [10]), the “Feeding Relative To Control” value stood at 0.74. For the same molecule, in test [2] (setting [10]), the “Flying Relative To Control” value is on record as 1.6. In addition, in the test on biting midges (setting [10]), the “Percent Caught Relative To Control” value was 21%.

`CC(C)[C@@H]1CC[C@@H](C)C(=O)C1` [Tetrahydrocarvone]: the “Feeding Relative To Control” value in test [1] (setting [9]) is given as 0.70. In addition, in test [1], the “contact mosquito repellent activity” value is reported as “especially effective as contact mosquito repellents”. Also, the “Flying Relative To Control” value in test [2] (setting [9]) came out at 1.7. Further, in the test with biting midges (setting [9]), the “Percent Caught Relative To Control” value is 25%.

Turning to `C=C(C)[C@H]1CC=C(C)C(=O)C1` [d-Carvone], the “Feeding Relative To Control” value in test [1] (setting [5]) came out at 0.64. For the same molecule, the “contact mosquito repellent activity” value in test [1] was “especially effective as contact mosquito repellents”. Besides, the “Flying Relative To Control” value in test [2] (setting [5]) was determined as 1.55. For the same molecule, the “Percent Caught Relative To Control” value with biting midges (setting [5]) came out at 13%.

In the case of `C=C[C@@](C)(O)CCC=C(C)C` [d-Linalool, reference compound], the “Feeding Relative To Control” value in test [1] (setting [3]) worked out at 0.32. Besides, the “Flying Relative To Control” value in test [2] (setting [3]) is given as 1.35. Further, in the test with biting midges (setting [3]), the “Percent Caught Relative To Control” value was found to be 6%.
